Measured values as given in US20240207427A1, “SELECTIVE DRUG RELEASE FROM INTERNALIZED CONJUGATES OF BIOLOGICALLY ACTIVE COMPOUNDS” (priority 2021, published 2024).
Where two headings read alike, the source gives them in different places.

Key:
[1] = system: h00-5, non-binding control antibody h00 conjugated with mp-D-Leu-Ala-Glu-PABC-MMAE (Drug Linker compound 5)
[2] = system: h00-37, non-binding control antibody h00 conjugated with mp-val-cit-PABC-MMAE (compound 37)
[3] = system: h00-7, non-binding control antibody h00 conjugated with mp-Leu-Ala-Glu-PABC-MMAE (Drug Linker compound 7)
[4] = system: U266 cells; experiment: In vitro potency (CellTiter-Glo, 96 h), U266; type: cell-based; conditions: Homo sapiens, U-266; camptothecin drugs, Table 13; CellTiter-Glo after 96 h exposure
Method: (§1) In vitro potency was assessed on multiple cancer cell lines. All cell lines were authenticated by STR profiling at IDEXX Bioresearch and cultured for no more than 2 months after resuscitation. Cells cultured in log-phase growth were seeded for 24 hours in 96-well plates containing […] RPMI 1640 supplemented with 20% FBS. Following addition of test articles, cells were incubated with test articles for 4 days at 37 0° C. After 96 hours, growth inhibition was assessed by CellTiterGlo® (Promega, Madison, WI) and luminescence was measured on a plate reader.
(§2) Cell viability was determined by CellTiter-Glo staining after 96 h exposure to the compound. ND=Not Determined. The cancer cell lines tested are renal carcinoma cells (786-0), melanoma cells (A2058), pancreatic cancer cells (BxPC3), non-small-cell lung cancer cells (Calu1), anaplastic large cell lymphoma cells (DEL, DELBVR, Karpas299), Hodgkin's lymphoma cells (L540cy), (Ls 174T), breast cancer cells (MDA-MB-231), acute myeloid leukemia cells (MOLM-13), B-lymphocyte cancer cells (SU-DHL4), multiple myeloma cells (MM.1R), (U266), and melanoma cells (SK-MEL-5).
as §1, with “FBS. Serial dilutions of antibody-drug conjugates in cell culture media were prepared at 4× working concentrations, and 50 μL of each dilution was added to the 96-well plates.” for “FBS.”, “37°” for “37 0°”
(§3) In vitro potency was assessed on multiple cancer cell lines. […] After 96 hours, growth inhibition was assessed by CellTiterGlo® (Promega, Madison, WI) and luminescence was measured on a plate reader.

[5] = system: B-lymphocyte cancer cells (SU-DHL4); experiment: In vitro potency (CellTiter-Glo, 96 h), SU-DHL-4; type: cell-based; conditions: Homo sapiens, SU-DHL-4, 96 h, CellTiter-Glo after 96 h exposure
In short: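 Four-day continuous exposure at 37 °C to serially diluted ADC or free camptothecin payload, in RPMI 1640 with 20% FBS after 24 h pre-plating. Luminescent signal gave IC50 (ng/mL; nmol/L).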

[6] = system: pancreatic cancer cells (BxPC3); experiment: In vitro potency (CellTiter-Glo, 96 h), BxPC3; type: cell-based; conditions: Homo sapiens, BXPC-3, 96 h, CellTiter-Glo after 96 h exposure
In short: (§4)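 Cells in log-phase growth seeded 24 h in RPMI 1640 with 20% FBS, then exposed to serially diluted ADC or CPT free drug for 96 h at 37 °C. Growth inhibition read by CellTiter-Glo luminescence; IC50 reported in ng/mL or nmol/L.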

[7] = system: acute myeloid leukemia cells (MOLM-13); experiment: In vitro potency (CellTiter-Glo, 96 h), MOLM-13; type: cell-based; conditions: Homo sapiens, MOLM-13, 96 h, CellTiter-Glo after 96 h exposure
In short: as §4

[8] = system: Hodgkin's lymphoma cells (L540cy); experiment: In vitro potency (CellTiter-Glo, 96 h), L540cy; type: cell-based
In short: (§5)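 Growth inhibition after 96 h at 37 °C with test article, measured by luminescence; cells in RPMI 1640, 20% FBS.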

[9] = system: melanoma cells (SK-MEL-5); experiment: In vitro potency (CellTiter-Glo, 96 h), SK-MEL-5; type: cell-based; conditions: Homo sapiens, camptothecin drugs, Table 13, CellTiter-Glo after 96 h exposure
Method: as §1, §2
as §1, with “FBS. Serial dilutions of antibody-drug conjugates in cell culture media were prepared at 4× working concentrations, and 50 μL of each dilution was added to the 96-well plates.” for “FBS.”, “37°” for “37 0°”
as §3

[10] = system: renal carcinoma cells (786-O); experiment: In vitro potency (CellTiter-Glo, 96 h), 786-O; type: cell-based; conditions: Homo sapiens, 786-0, 96 h, CellTiter-Glo after 96 h exposure
In short: as §5

[11] = system: multiple myeloma cells (MM.1R); experiment: In vitro potency (CellTiter-Glo, 96 h), MM.1R; type: cell-based; conditions: camptothecin drugs, Table 13, CellTiter-Glo after 96 h exposure
Method: as §1, §2
as §1, with “FBS. Serial dilutions of antibody-drug conjugates in cell culture media were prepared at 4× working concentrations, and 50 μL of each dilution was added to the 96-well plates.” for “FBS.”, “37°” for “37 0°”
as §3

[12] = system: Ls174T cells; experiment: In vitro potency (CellTiter-Glo, 96 h), Ls174T; type: cell-based; conditions: Homo sapiens, LS174T; CPT free drugs, Table 24; CellTiter-Glo after 96 h exposure; read-out: IC50 (nmol/L) Ls174T
In short: as §4

[13] = system: anaplastic large cell lymphoma cells (DEL); experiment: In vitro potency (CellTiter-Glo, 96 h), DEL; type: cell-based; conditions: CPT free drugs, Table 24, CellTiter-Glo after 96 h exposure, read-out: IC50 (nmol/L) DEL
In short: (§6)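 Medium: RPMI 1640 + 20% FBS. Pre-seeding: 24 h. Treatment: ADC or CPT free drug serial dilutions, 96 h, 37 °C. Read-out: luminescence; IC50 in ng/mL and nmol/L.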

[14] = system: anaplastic large cell lymphoma cells (DELBVR); experiment: In vitro potency (CellTiter-Glo, 96 h), DELBVR; type: cell-based; conditions: CPT free drugs, Table 24, CellTiter-Glo after 96 h exposure, read-out: IC50 (nmol/L) DELBVR
In short: as §5

[15] = system: anaplastic large cell lymphoma cells (Karpas299); experiment: In vitro potency (CellTiter-Glo, 96 h), Karpas299; type: cell-based; conditions: Homo sapiens, KARPAS-299, 96 h, CPT free drugs, Table 24; CellTiter-Glo after 96 h exposure; read-out: IC50 (nmol/L) Karpas299
In short: as §5

[16] = system: non-small-cell lung cancer cells (Calu1); experiment: In vitro potency (CellTiter-Glo, 96 h), Calu1; type: cell-based; conditions: Homo sapiens, Calu-1, 96 h, CPT free drugs, Table 24; CellTiter-Glo after 96 h exposure; read-out: IC50 (nmol/L) Calu1
In short: as §6

[17] = system: breast cancer cells (MDA-MB-231); experiment: In vitro potency (CellTiter-Glo, 96 h), MDA-MB-231; type: cell-based; conditions: Homo sapiens, MDA-MB-231, 96 h, CPT free drugs, Table 24; CellTiter-Glo after 96 h exposure; read-out: IC50 (nmol/L) MDAMB231
In short: as §5

[18] = system: melanoma cells (A2058); experiment: In vitro potency (CellTiter-Glo, 96 h), A2058; type: cell-based; conditions: Homo sapiens, A2058, 96 h, CPT free drugs, Table 24; CellTiter-Glo after 96 h exposure; read-out: IC50 (nmol/L) A2058
In short: as §6

[19] = read-out: IC50 SU-DHL-4, camptothecin drugs, Table 13
[20] = read-out: IC50 BxPC3, camptothecin drugs, Table 13
[21] = read-out: IC50 MOLM-13, camptothecin drugs, Table 13
[22] = read-out: IC50 L540cy, camptothecin drugs, Table 13, CellTiter-Glo after 96 h exposure
[23] = read-out: IC50 786-O, camptothecin drugs, Table 13
[24] = CPT free drugs, Table 24, read-out: IC50 (nmol/L) SU-DHL-4
[25] = CPT free drugs, Table 24, read-out: IC50 (nmol/L) BxPC3
[26] = CPT free drugs, Table 24, read-out: IC50 (nmol/L) MOLM-13
[27] = CPT free drugs, Table 24, CellTiter-Glo after 96 h exposure, read-out: IC50 (nmol/L) L540cy
[28] = CPT free drugs, Table 24, read-out: IC50 (nmol/L) 786-O

| Compound | IC50 [12] [nmol/L] | IC50 [13] [nmol/L] | IC50 [14] [nmol/L] | IC50 [5, 24] [nmol/L] | IC50 [6, 25] [nmol/L] | IC50 [15] [nmol/L] | IC50 [7, 26] [nmol/L] | IC50 [8, 27] [nmol/L] | IC50 [16] [nmol/L] | IC50 [10, 28] [nmol/L] | IC50 [17] [nmol/L] | IC50 [18] [nmol/L] | further results |
| --- | --- | --- | --- | --- | --- | --- | --- | --- | --- | --- | --- | --- | --- |
| neutrophil elastase |  |  |  |  |  |  |  |  |  |  |  |  | percentage of drug cleaved from the heavy chain (QToF mass spectrometry after 3 h at 37 C) [1]: no proteolosis of h00-5 by neutrophil elastase was observed; percentage of drug cleaved from the heavy chain (QToF mass spectrometry after 3 h at 37 C) [2]: percentage of drug cleaved from the heavy chain of non-targeted ADC 5 in vitro by neutrophil elastase is lower than that found for non-targeted ADC 37; percentage of drug cleaved from the heavy chain (QToF mass spectrometry after 3 h at 37 C) [3]: the h00-5 conjugate ... has its heavy chain cleaved by neutrophil elastase to a significantly lower extent than h00-7 |
| Cathepsin B |  |  |  |  |  |  |  |  |  |  |  |  | percentage of drug cleaved from the heavy chain (QToF mass spectrometry after 3 h at 37 C, pH 4.5) [1]: percentage of drug cleaved from the heavy chain of non-targeted ADCs 5 and 7 in vitro by Cathepsin B is similar to that found for non-targeted ADC 37; percentage of drug cleaved from the heavy chain (QToF mass spectrometry after 3 h at 37 C, pH 4.5) [2]: percentage of drug cleaved from the heavy chain of non-targeted ADCs 5 and 7 in vitro by Cathepsin B is similar to that found for non-targeted ADC 37; percentage of drug cleaved from the heavy chain (QToF mass spectrometry after 3 h at 37 C, pH 4.5) [3]: percentage of drug cleaved from the heavy chain of non-targeted ADCs 5 and 7 in vitro by Cathepsin B is similar to that found for non-targeted ADC 37 |
| CC[C@@]1(O)C(=O)OCc2c1cc1n(c2=O)Cc2c-1nc1cc3c(cc1c2CNc1ccc(N)cc1)OCO3 [Compound 7ab] |  |  |  |  |  |  |  |  |  |  |  |  | IC50 [4]: 0.002 µM; IC50 [5, 19]: 0.4 nmol/L; IC50 [6, 20]: 1 nmol/L; IC50 [7, 21]: 0.3 nmol/L; IC50 [8, 22]: 0.4 nmol/L; IC50 [9]: 0.001 µM; IC50 [10, 23]: 1 nmol/L; IC50 [11]: 0.0004 µM |
| CC[C@@]1(O)C(=O)OCc2c1cc1n(c2=O)Cc2c-1nc1ccc(C(F)(F)F)cc1c2CN [Compound 2g] | 65.3 | 17.6 | 33.5 | 60 | 258 | 221 | 598 | 62 | 755 | 102 | 79 | 37 |  |
| CC[C@@]1(O)C(=O)OCc2c1cc1n(c2=O)Cc2c-1nc1cc3c(cc1c2CNc1cccc(N)c1)OCO3 [Compound 7ad] |  |  |  |  |  |  |  |  |  |  |  |  | IC50 [4]: 0.008 µM; IC50 [5, 19]: 2 nmol/L; IC50 [6, 20]: 6 nmol/L; IC50 [7, 21]: 1 nmol/L; IC50 [8, 22]: 2 nmol/L; IC50 [9]: 0.007 µM; IC50 [10, 23]: 5 nmol/L; IC50 [11]: 0.002 µM |
| CC[C@@]1(O)C(=O)OCc2c1cc1n(c2=O)Cc2c-1nc1cc(Cl)c(C)c(F)c1c2CN [Compound 2ab] | 6 | 2 | 3 | 4 | 12 | 7 | 53 | 4 | 22 | 6 | 30 | 3 |  |
| CC[C@@]1(O)C(=O)OCc2c1cc1n(c2=O)Cc2c-1nc1cc(F)c(O)c(F)c1c2CN [Compound 3d] | > 1000 | 843 | > 1000 | > 1000 | > 1000 | > 1000 | > 1000 | > 1000 | > 1000 | > 1000 | > 1000 | > 1000 |  |
| CC[C@@]1(O)C(=O)OCc2c1cc1n(c2=O)Cc2c-1nc1ccc(SC(F)(F)F)cc1c2CN [Compound 2r] | 15.6 | 4.4 | 8.4 | 16 | 75 | 37 | 23 | 15 | 168 | 21 | 19 | 11 |  |
| CC[C@@]1(O)C(=O)OCc2c1cc1n(c2=O)Cc2c-1nc1cc(F)c(O)c3c1c2CNC3 [Compound 3c] | > 1000 | > 1000 | > 1000 | > 1000 | > 1000 | > 1000 | > 1000 | > 1000 | > 1000 | > 1000 | > 1000 | > 1000 |  |
| CC[C@@]1(O)C(=O)OCc2c1cc1n(c2=O)Cc2c-1nc1cc3c(cc1c2CNc1ccccc1N)OCO3 [Compound 7ac] |  |  |  |  |  |  |  |  |  |  |  |  | IC50 [4]: 0.008 µM; IC50 [5, 19]: 1 nmol/L; IC50 [6, 20]: 5 nmol/L; IC50 [7, 21]: 1 nmol/L; IC50 [8, 22]: 2 nmol/L; IC50 [9]: 0.004 µM; IC50 [10, 23]: 2 nmol/L; IC50 [11]: 0.002 µM |
| CCc1cc2nc3c(c(CN)c2c(F)c1C)Cn1c-3cc2c(c1=O)COC(=O)[C@]2(O)CC [Compound 2w] | 843 | 283 | 271 | 958 | > 1000 | > 1000 | > 1000 | 922 | > 1000 | 649 | > 1000 | 286 |  |
